Data taken from patent publication US9303069B2, “Peptides for treating cancer” (University of Mississippi Medical Center, priority 2014, dated 2016).
Ends that are not written are not given here.

Columns and labels:
[1] = test system: SKOV3 cells; experiment: Hanging drops (anchorage independent growth), SKOV3; assay type: cell-based, human; conditions: IRIS peptide 5 μM versus scrambled peptide
Protocol: Hanging drops: In this technique, the anchorage independent growth ability of cells was measured.
Hanging Drop Method. Single-cell suspensions were made from monolayer cultures in growth medium. Cell density used was 250 cells per drop (20 μl) of medium dispensed onto a 6 cm dish (Corning Life Sciences, Union City, Calif.). The dish was then inverted, the drops were held in place by surface tension, and cells accumulated at the free liquid-air interface. The dishes were placed on a tray with water and incubated under standard conditions. Hanging cell-drops formed was analyzed using microscope. All experiments were done in triplicate.

[2] = test system: MDA-MB-468 tumors; experiment: In vivo efficacy on established MDA-MB-468 tumors; set-up: species or system mice; conditions: day 12; IRIS peptide 10 mg/kg i.t.; combination at half the concentrations
Protocol: Nude 6-8 weeks female mice were injected with 2×10^6 of MDA-MB-468 cells in the 2nd left and 4th right mammary fat pads. When all tumors reached ˜0.1 cm^3 in volume, mice were divided into four groups, one received vehicles (i.e. DMSO injected intraperitoneally [i.p.] and scrambled peptide injected directly into tumors [i.t.]), another received paclitaxel (10 mg/kg, i.p.), the third received IRIS peptide at (10 mg/kg, i.t.), and the last received paclitaxel and IRIS peptide at half the concentrations, injected as above. Drugs were delivered every third day for total of four injections.
In Vivo efficacy of BRCA1-IRIS-inhibitory peptide. Six to eight week old female athymic SCID mice were injected in the second right and the fourth left mammary gland with 2.5×10^6 of MDAMB468 cells. Tumor growth was followed daily until tumors reached 100 mm^3. At this time mice were randomly grouped into four different groups that were injected: a) with DMSO (i.p.) and scrambled peptide (10 mg/kg) intra-tumoral (i.t.), b) injected with IRIS peptide (10 mg/kg, i.t.), c) injected with paclitaxel (10 mg/kg, i.p.), d) injected with IRIS peptide (5 mg/kg, i.t.), and paclitaxel (5 mg/kg, i.p.). […] Change in tumor volume was measured to monitor the efficacy of the treatments using caliper and is represented as percentage of volume at day 0 of treatment. […]

[3] = test system: BRCA1-IRIS; experiment: BRCA1-IRIS expression in breast cells (Western); assay type: cell-based, human
Protocol: HME and HME/IRIS cells were treated with 10, 20 and 50 μM of paclitaxel for 24 hours. Compared to HME/IRIS cells, untreated HME cells express very low level of BRCA1-IRIS (FIG. 68, left). […] Both EGF and NRG1, which were secreted at higher levels from untreated HME/IRIS cells, remained high after paclitaxel (until ˜50 μM, FIG. 68, left), whereas in HME cells, both were induced by low paclitaxel treatment (FIG. 68, left). Consistently, in HME/IRIS cells EGFR was phosphorylated on Y1173 (activated by EGF when EGFR is in complex with ErbB2) and ErbB2 on Y1248 (activated by NRG1 when ErbB2 is in complex with ErbB3) remained the same after paclitaxel treatment (until ˜50 μM, FIG. 68, left). Phosphorylated EGFR-Y1173 and ErbB2-Y1248 was only observed in paclitaxel treated HME cells, especially at low concentration (FIG. 68, left).
Survived/paclitaxel-resistant cells were then propagated in the absence of paclitaxel and analyzed. Again, the intrinsically high level of BRCA1-IRIS was not affected by paclitaxel in HME/IRIS cells (FIG. 69, left). […] The expressions of EGFR, ErbB2 and ErbB3 were high in HME/IRIS and HME cells (FIG. 69, left). Despite an intrinsic increase in HME/IRIS and paclitaxel-acquired increase in HME cells in AKT activation, FOXO inactivation/degradation and thus activation increase in CyclinD1, survivin, Bcl-2, Bcl-xL and NF-κB was observed (FIG. 69, right).
To test that hypothesis, an intron 11 peptide (right in FIG. 26) fused to a cell/nucleus penetrating signal at its N-terminus (left in FIG. 26) was synthesized (hereafter IRIS peptide). First, to assess the effect of this IRIS peptide, equal numbers of HME, HME/IRIS, MDA-MB-231, MDA-MB-468 and BT549 cells were exposed to increasing concentrations of scrambled or IRIS peptide for 48 hours. […] It is possible that preventing BRCA1-IRIS-X complex formation destabilizes BRCA1-IRIS and perhaps leads to its degradation.
To investigate whether inactivating BRCA1-IRIS could sensitize TNBC to paclitaxel-induced cell death, HME cells were exposed to 0.5 μM, while HME/IRIS, MDA-MB-231, MDA-MB-468 and BT549 cells were exposed to 5 μM of IRIS peptide alone or with 5, 10 or 20 μM of paclitaxel for 24 hours. […] Again, IRIS peptide alone at these concentrations led to 50% reduction in survival of all cell lines. […] Indeed, in the presence of IRIS peptide >60%, >70% and >90% reduction in the survival of all cell lines in the presence of 5, 10 and 20 μM of paclitaxel, respectively (FIG. 84).
To relate the effect of IRIS peptide on cell survival to the effect of BRCA1-IRIS on AKT and ERK survival pathways, MDA-MB-231 and MDA-MB-468 were treated with vehicle, 5 μM of IRIS peptide, 10 μM LY294002, 10 μM PD98059 for 24 hours or were transfected with BRCA1-IRIS siRNA for 72 hours.

In the case of “RRIRPRPPRLPRPRPRPLPFPRPGIGTRFLCLPQSIYRSELNVYAFGEHILQISKYS [IRIS peptide]”, the “ability to form hanging drops” value [1] is reported as “complete loss of ability”, the “tumor size as % of original size (at day 0)” value [2] is reported as about 75% and the BRCA1-IRIS expression ([3]; HME, HME/IRIS and TNBC cell lines, 5 μM of IRIS peptide for 24 hours) is reported as “significant reduction in BRCA1-IRIS expression”. For the same sequence, the BRCA1-IRIS expression ([3]; MDA-MB-231 and MDA-MB-468, 5 μM IRIS peptide, 10 μM LY294002 or 10 μM PD98059 24 hours, siRNA 72 hours) was “significantly decreased in both cell lines” and the BRCA1-IRIS expression ([3]; all cell lines, IRIS peptide 0.5 μM (HME) or 5 μM (others), 24 hours) was “completely abolished BRCA1-IRIS expression in all cell lines”.
